In brackets after ≈: the same amount, converted by molar mass.
How the values were obtained:
[1] = system: Abs. corym. 1; test: Agar dilution test, minimal inhibitory concentration in vitro; assay type: cell-based; details: read-out: Minimale Hemmkonzentration (MHK) Abs. corym. 1
Excerpt: (§1) Die Wirkung gegen Dermatophyten, Bakterien und Protozonen kann nach Methoden, wie sie beispielsweise in P. Klein, Bakteriologische Grundlagen der chemotherapeutischen Laboratoriumspraxis, Springer-Verlag Berlin, 1957, beschrieben wird, aufgezeigt werden. Die überraschende Wirkung gegenüber Hefen wurde im Pseudomyzel- und Myzelphasentest mit Candida albicans nachgewiesen (vgl. DE-OS 30 10 093). Es wurde geprüft, welche minimalen Hemmkonzentrationen (MHK-Werte) im Agardilutionstest erreicht werden. In der Tabelle 1 sind die Ergebnisse zusammengefaßt.

[2] = system: Aps.fum. 2; test: as above; assay type: cell-based; details: read-out: Minimale Hemmkonzentration (MHK) Aps.fum. 2
Excerpt: as §1

[3] = system: E.coli muta-flor; test: as above; assay type: cell-based; details: Escherichia coli, read-out: Minimale Hemmkonzentration (MHK) E.coli muta-flor
Excerpt: as §1

[4] = system: Epid. flocc. 157; test: as above; assay type: cell-based; details: read-out: Minimale Hemmkonzentration (MHK) Epid. flocc. 157
Excerpt: as §1

[5] = system: Microsp. ferrug. 5; test: as above; assay type: cell-based; details: read-out: Minimale Hemmkonzentration (MHK) Microsp. ferrug. 5
Excerpt: as §1

[6] = system: Mucor pus. 6; test: as above; assay type: cell-based; details: read-out: Minimale Hemmkonzentration (MHK) Mucor pus. 6
Excerpt: as §1

[7] = system: Staph. aur. SG 511; test: as above; assay type: cell-based; details: read-out: Minimale Hemmkonzentration (MHK) Staph. aur. SG 511
Excerpt: as §1

[8] = system: Strept. faec. 8043; test: as above; assay type: cell-based; details: read-out: Minimale Hemmkonzentration (MHK) Strept. faec. 8043
Excerpt: as §1

[9] = system: Trichoph. ment. 21; test: as above; assay type: cell-based; details: read-out: Minimale Hemmkonzentration (MHK) Trichoph. ment. 21
Excerpt: as §1

[10] = system: Cand.alb. H; test: Candida albicans pseudomycelium/mycelium phase test, MIC; assay type: cell-based; details: in vitro, column H, read-out: Minimale Hemmkonzentration (MHK) Cand.alb. H
Excerpt: as §1

[11] = system: Cand.alb. M; test: Candida albicans pseudomycelium/mycelium phase test, MIC (column M); assay type: cell-based; details: in vitro, read-out: Minimale Hemmkonzentration (MHK) Cand.alb. M
Excerpt: as §1

[12] = system: Entamoeb hist.; test: Minimal inhibitory concentration in vitro (protozoa); assay type: cell-based; details: read-out: Minimale Hemmkonzentration (MHK) Entamoeb hist.
Excerpt: as §1

[13] = system: Trichom. vag.; test: as above; assay type: cell-based; details: read-out: Minimale Hemmkonzentration (MHK) Trichom. vag.
Excerpt: as §1

[14] = system: Weizenmehltau (Erysiphe graminis var. tritici); test: Versuch 1: activity against wheat powdery mildew on wheat seedlings; assay type: in vivo; details: 0,025; 0,006; 0,0015 %ige Spritzbrühen; sprayed 24 h before inoculation; assessed after 7 days; value given as 'beispielsweise'
Description: Blätter von in Töpfen gewachsenen Weizenkeimlingen der Sorte "Jubilar" wurden mit wäßriger Spritzbrühe, die 80 % (Gew.%) Wirkstoff und 20 % Emulgiermittel in der Trockensubstanz enthielt, besprüht und 24 Stunden nach dem Antrocknen des Spritzbelages mit Oidien (Sporen) des Weizenmehltaus (Erysiphe graminis var. tritici) bestäubt. Die Versuchspflanzen wurden anschließend im Gewächshaus bei Temperaturen zwischen 20 und 22 °C und 75 bis 80 % relativer Luftfeuchtigkeit aufgestellt. Nach 7 Tagen wurde das Ausmaß der Mehltauentwicklung ermittelt.

[15] = system: Gurkenmehltau (Erysiphe cichoracearum); test: Versuch 3: activity against cucumber powdery mildew on cucumber seedlings; assay type: in vivo; details: 0,025 %ige Spritzbrühe; sprayed about 20 h after inoculation; assessed after 21 days; value given as 'beispielsweise'
Excerpt: Blätter von in Töpfen gewachsenen Gurkenkeimlingen der Sorte "Chinesische Schlange" wurden im Zweiblattstadium mit einer Sporensuspension des Gurkenmehltaus (Erysiphe cichoracearum) besprüht. Nach etwa 20 Stunden wurden die Versuchspflanzen mit wäßriger Spritzbrühe, die 80 % Wirkstoff und 20 % Emulgiermittel in der Trockensubstanz enthielt, bis zur Tropfnässe besprüht. Nach dem Antrocknen des J Spritzbelages wurden sie anschließend im Gewächshaus bei Temperaturen zwischen 20 und 22^00 und 70 bis 80 % relativer Luftfeuchtigkeit aufgestellt. Zur Beurteilung der Wirksamkeit der neuen Stoffe wurde das Ausmaß der Pilzentwicklung nach 21 Tagen beurteilt.

[16] = system: Botrytis cinerea; test: Versuch 4: activity against Botrytis cinerea on paprika seedlings; assay type: in vivo; details: 0,05 %ige Spritzbrühe; sprayed before inoculation; assessed after 5 days; value given as 'beispielsweise'
Excerpt: Paprikasämlinge der Sorte "Neusiedler Ideal Elite" wurden, nachdem sich 4 bis 5 Blätter gut entwickelt hatten, mit wäßrigen Suspensionen, die 80 % Wirkstoff und 20 % Emulgiermittel in der Trockensubstanz enthielten, tropfnaß gespritzt. Nach dem Antrocknen des Spritzbelages wurden die Pflanzen mit einer Konidienaufschwemmung des Pilzes Botrytis cenerea besprüht und bei 22 bis 24 C in eine Kammer mit hoher Luftfeuchtigkeit gestellt. Nach 5 Tagen hatte sich die Krankheit auf den unbehandelten Kontrollpflanzen so stark entwickelt, daß die entstandenen Blattnekrosen den überwiegenden Teil der Blätter bedeckten.

[17] = system: Weizenbraunrost (Puccinia recondita); test: Versuch 2: activity against wheat brown rust on wheat seedlings; assay type: in vivo; details: 0,025; 0,006; 0,0015 %ige Spritzbrühen; sprayed 24 h after inoculation; assessed after 8 days; value given as 'beispielsweise'
Description: Blätter von in Töpfen gewachsenen Weizensämlingen der Sorte "Jubilar" wurden mit Sporen des Braunrostes (Puccinia recondita) bestäubt. Danach wurden die Töpfe für 24 Stunden bei 20 bis 22°C in eine Kammer mit hoher Luftfeuchtigkeit (90 bis 95 %) gestellt. Während dieser Zeit keimten die Sporen aus und die Keimschläuche drangen in das Blattgewebe ein. Die infizierten Pflanzen wurden anschließend mit wäßrigen Spritzbrühen, die 80 % Wirkstoff und 20 % Emulgiermittel in der Trockensubstanz enthielten, tropfnaß gespritzt. Nach dem Antrocknen des Spritzbelages wurden die Versuchspflanzen im Gewächshaus bei Temperaturen zwischen 20 und 22°C und 65 bis 70 % relativer Luftfeuchte aufgestellt. Nach 8 Tagen wurde das Ausmaß der Rostpilzentwicklung auf den Blättern ermittelt.

Row | Structure (SMILES) | MIC [1] [µg/mL] | MIC [2] [µg/mL] | MIC [3] [µg/mL] | MIC [4] [µg/mL] | MIC [5] [µg/mL] | MIC [6] [µg/mL] | MIC [7] [µg/mL] | MIC [8] [µg/mL] | MIC [9] [µg/mL] | MIC [10] [µg/mL] | MIC [11] [µg/mL] | MIC [12] [µg/mL] | MIC [13] [µg/mL] | fungizide Wirkung gegen Weizenmehltau [14] [%] | fungizide Wirkung gegen Gurkenmehltau [15] [%] | fungizide Wirkung gegen Botrytis cinerea an Paprika [16] [%] | fungizide Wirkung gegen Weizenbraunrost [17] [%]
1 | Clc1ccc(C2(Cn3ccnc3)OC2c2ccc(Cl)cc2Cl)cc1 (single isomer, unassigned) [Beispiel 1, 2-(1H-Imidazol-1-yl-methyl)-2-(4-chlorphenyl)-3-(2,4-dichlorphenyl)-oxiran] | 0.5 (≈ 1.32 µM) | 1 (≈ 2.63 µM) | > 128 | 0.5 (≈ 1.32 µM) | – | 1 (≈ 2.63 µM) | 16 (≈ 42.1 µM) | 128 (≈ 337 µM) | 0.5 (≈ 1.32 µM) | 16 (≈ 42.1 µM) | < 0.0039 | – | > 16 | 100 | 100 | 97 | –
2 | COc1cccc(C2OC2(Cn2cncn2)c2ccc(Cl)cc2)c1 (single isomer, unassigned) [Beispiel 30] | 16 (≈ 46.8 µM) | > 128 | > 128 | 8 (≈ 23.4 µM) | 2 (≈ 5.85 µM) | 8 (≈ 23.4 µM) | > 128 | > 128 | 8 (≈ 23.4 µM) | 64 (≈ 187 µM) | 2 (≈ 5.85 µM) | > 1 | > 16 | – | – | 97 | 100
3 | CC(C)(C)c1ccc(C2OC2(Cn2ccnc2)c2ccc(Cl)cc2Cl)cc1 (single isomer, unassigned) [Beispiel 21] | 16 (≈ 39.9 µM) | > 128 | > 128 | 16 (≈ 39.9 µM) | 8 (≈ 19.9 µM) | 8 (≈ 19.9 µM) | 8 (≈ 19.9 µM) | 2 (≈ 4.98 µM) | 16 (≈ 39.9 µM) | 2 (≈ 4.98 µM) | 1 (≈ 2.49 µM) | > 1 | > 16 | – | – | – | –
4 | CC(C)(C)C1(Cn2ccnc2)OC1c1ccc(Cl)cc1Cl (single isomer, unassigned) [Beispiel 18] | 32 (≈ 98.4 µM) | 0.5 (≈ 1.54 µM) | > 128 | 0.25 (≈ 0.769 µM) | 0.25 (≈ 0.769 µM) | 16 (≈ 49.2 µM) | 4 (≈ 12.3 µM) | 2 (≈ 6.15 µM) | 0.5 (≈ 1.54 µM) | > 16 | – | > 1 | > 16 | – | 100 | – | –
5 | Clc1ccc(C2(Cn3cncn3)OC2c2ccc(Cl)cc2Cl)cc1 (single isomer, unassigned) [Beispiel 3, 2-(1,2,4-Triazol-1-yl--methyl)-2-(4-chlorphenyl)-3-(2,4-dichlorphenyl)-oxiran] | 2 (≈ 5.25 µM) | > 128 | > 128 | 4 (≈ 10.5 µM) | 2 (≈ 5.25 µM) | 1 (≈ 2.63 µM) | 32 (≈ 84.1 µM) | > 128 | 8 (≈ 21 µM) | > 128 | – | > 1 | > 16 | – | – | 97 | 100

The next lines start with results.

Row | MIC [1] [µg/mL] | MIC [2] [µg/mL] | MIC [3] [µg/mL] | MIC [4] [µg/mL] | MIC [5] [µg/mL] | MIC [6] [µg/mL] | MIC [7] [µg/mL] | MIC [8] [µg/mL] | MIC [9] [µg/mL] | MIC [10] [µg/mL] | MIC [11] [µg/mL] | MIC [12] [µg/mL] | MIC [13] [µg/mL] | Structure (SMILES) | fungizide Wirkung gegen Weizenmehltau [14] [%] | fungizide Wirkung gegen Gurkenmehltau [15] [%] | fungizide Wirkung gegen Botrytis cinerea an Paprika [16] [%] | fungizide Wirkung gegen Weizenbraunrost [17] [%]
6 | 8 (≈ 23.5 µM) | 16 (≈ 46.9 µM) | > 128 | 2 (≈ 5.87 µM) | 2 (≈ 5.87 µM) | 4 (≈ 11.7 µM) | 16 (≈ 46.9 µM) | 4 (≈ 11.7 µM) | 2 (≈ 5.87 µM) | 128 (≈ 376 µM) | 0.25 (≈ 0.734 µM) | > 1 | > 16 | COc1cccc(C2OC2(Cn2ccnc2)c2ccc(Cl)cc2)c1 (single isomer, unassigned) [Beispiel 29] | – | – | – | –
7 | 2 (≈ 5.13 µM) | 16 (≈ 41.1 µM) | > 128 | 1 (≈ 2.57 µM) | 0.25 (≈ 0.642 µM) | 2 (≈ 5.13 µM) | 8 (≈ 20.5 µM) | 4 (≈ 10.3 µM) | 1 (≈ 2.57 µM) | 64 (≈ 164 µM) | 0.0156 (≈ 0.04 µM) | > 1 | > 16 | Clc1ccc(C2(Cn3ccnc3)OC2c2ccc(Br)cc2)cc1 (single isomer, unassigned) [Beispiel 47] | – | – | – | –

Reference: patent EP0094564A2, “Azolyl-methyl oxiranes, their preparation and use as medicaments and plant protecting agents” (BASF Aktiengesellschaft, priority 1982, dated 1983)
